Data reported in ChEMBL document CHEMBL1127481, “Adenosine deaminase inhibitors. Synthesis and biological evaluation of 4-amino-1-(2(S)-hydroxy-3(R)-nonyl)-1H-imidazo[4,5-c]pyridine (3-deaza-(+)-EHNA) and certain C1' derivatives” (J Med Chem, 1994).

What follows are molecules tested against T1, Adenosine deaminase (Bos taurus, UniProt P56658) (assay: Compound was tested for the inhibition of adenosine deaminase from calf intestinal mucosa).
T1 sequence (P56658 whole entry): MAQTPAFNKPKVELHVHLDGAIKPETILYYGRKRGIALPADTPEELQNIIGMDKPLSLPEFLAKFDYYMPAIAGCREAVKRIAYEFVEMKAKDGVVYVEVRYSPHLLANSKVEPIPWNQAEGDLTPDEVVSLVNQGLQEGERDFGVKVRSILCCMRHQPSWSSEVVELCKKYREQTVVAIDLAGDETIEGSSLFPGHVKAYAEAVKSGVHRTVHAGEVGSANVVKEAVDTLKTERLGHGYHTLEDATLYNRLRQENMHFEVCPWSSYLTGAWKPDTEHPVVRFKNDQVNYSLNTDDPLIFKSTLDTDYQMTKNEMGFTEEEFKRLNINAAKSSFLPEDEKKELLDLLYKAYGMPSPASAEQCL

Compound	Ki
CCCCCC[C@H]([C@@H](O)CF)n1cnc2c(N)nccc21	4.7 nM
CCCCCC[C@H]([C@@H](O)CO)n1cnc2c(N)nccc21	497 nM
CCCCCC[C@H]([C@H](C)O)n1cnc2c(N)nccc21	6.2 nM
